{"source": "patent US20060293249A1", "about": "“Porphyrin derivatives” (PhotoBiotics Limited, priority 2002, published 2006)", "key": {"[1]": {"settings": "compounds known in the art; cited from earlier work"}, "[2]": {"assay": "Determination of singlet oxygen quantum yields (phosphorescence at 1270 nm following laser excitation, relative to reference standard)", "format": "physicochemical", "procedure": "Air equilibrated solutions of the sensitisers were optically matched at the laser excitation wavelength along with that of the reference standard whose singlet oxygen quantum yield is known. Singlet oxygen generation is detected by its phosphorescence at 1270 nm following laser excitation. At each laser intensity the recorded phosphorescence trace was obtained by signal averaging 10 single shots. A linear regression between the signal amplitude and the laser intensity is carried out with the aim of calculating the slope of the straight line and since the gradient is proportional to the singlet oxygen quantum yield, by comparison with the gradient obtained for the standard, the singlet oxygen quantum yield for the sample can calculated using: φ=φstandard×(slopesample/slopestandard)×(absorptionsample/absorptionstandard)\nThis is a comparative method where the value obtained for φ is relative to that of a known standard. The quality of the results obtained are heavily dependent on the quality of the standard, which should be freshly prepared before measurements."}, "[3]": {"assay": "Solubility remark in synthesis", "format": "physicochemical"}, "[4]": {"settings": "in toluene; known standard value; cited from earlier work"}}, "note": "Read-outs that look alike come from different tables or passages of the source.", "data": [{"compound": "disulfonated aluminium phthalocyanine [AIPCS2]", "values": [{"measurement": "singlet oxygen quantum yield", "setting": "[1]", "value": 0.3}]}, {"compound": "Zinc5-[5-(2′-(trimethylsilyl)ethyl-4-hydroxybenzoate)pentane]-10,15,20-tri-2-ethynylpyridine-porphyrin [Compound [11]]", "values": [{"measurement": "singlet oxygen quantum yield", "setting": "[2]", "value": "around 0.81"}, {"measurement": "singlet oxygen quantum yield", "setting": "[2]; in toluene", "value": 0.8109}]}, {"compound": "5-Nonane-10,15,20-triiodo-porphyrin [[18]]", "values": [{"measurement": "solubility", "setting": "[3]", "value": "limited solubility"}]}, {"compound": "C=Cc1c(C)c2cc3nc(c4c5[n-]c(cc6nc(cc1[n-]2)C(C)=C6CC)c(C)c5C(=O)[C@@H]4C(=O)OC)[C@@H](CCC(=O)OC/C=C(\\C)CCC[C@H](C)CCC[C@H](C)CCCC(C)C)[C@@H]3C.[Mg+2]", "note": "[chlorophyll A]", "values": [{"measurement": "singlet oxygen quantum yield of reference standard", "setting": "[4]", "value": 0.6}]}, {"compound": "5-Pentane-10,15,20-triiodo-porphyrin [[30]]", "values": [{"measurement": "solubility", "setting": "[3]", "value": "limited solubility"}]}, {"compound": "C[Si](C)(C)CCOC(=O)c1ccc(OCCCCCc2c3nc(c(I)c4ccc([nH]4)c(I)c4nc(c(I)c5ccc2[nH]5)C=C4)C=C3)cc1", "note": "[[9], 5-[5-(2′-(trimethylsilyl)ethyl-4-hydroxybenzoate)pentane]-10,15,20-triiodo-porphyrin]", "values": [{"measurement": "solubility", "setting": "[3]", "value": "limited solubility"}]}]}
